Reference: US10214515B2, “Substituted pyrazoles as inhibitors of fibroblast growth factor receptor” (Zhejiang Hisun Pharmaceutical Co., Ltd., priority 2015, dated 2019)
Where two headings read alike, the source gives them in different places.

Columns and labels:
[1] = test system: human gastric cancer cells KATOIII; test: Tumor cell proliferation, CCK-8 kit; assay type: cell-based; conditions: KATO III, 72 hours
[2] = test system: small cell lung cancer cells DMS114; test: Tumor cell proliferation, CCK-8 kit; assay type: cell-based; conditions: Homo sapiens, DMS-114, 72 hours
[3] = test system: human bladder transplanted cell carcinoma cell SW780; test: cells; conditions: SW780, 72 h, read-out: IC50(nM)/SW780
Source text: For the FGFR3 subtype, the human bladder transplanted cell carcinoma cell SW780 (purchased from the Chinese Academy of Sciences, Shanghai Institute of Life Sciences, Cell Resource Center) was used, and cultivated according to the corresponding conditions.
The experimental assay can be briefly described as follows: the tested compound was first dissolved in DMSO to prepare a stock solution, then it was subjected to gradient dilution with corresponding cell culture medium to prepare a test sample. The final concentration of the compound is in the range of 30 μM to 0.01 nM. The tumor cells in logarithmic growth phase were inoculated into 96-well cell culture plates at appropriate densities, after the cells were incubated overnight under the corresponding conditions, the tested compound samples were added and the cells were cultured for 72 hours. After completion of the culture, a suitable volume of CCK-8 test solution was added to each well and the cells were incubated at 37° C. for 1 to 4 hours. […] The percentage inhibition rate of the compound at each concentration point was calculated by comparing with the absorbance values of the control group, and then non-linear regression analysis was carried out using logarithmic concentration of the compounds-inhibition rates in the GraphPad Prism 5 software, to obtain the IC50 values for inhibiting cell proliferation of the compounds.

[4] = Pharmacokinetic tests on rats, intragastric, plasma LC/MS/MS; assay type: in vivo; conditions: SD rats; for AUC(0-inf) / half-life / Cmax / MRT: male, rat, plasma, po; for AUC(0-inf): read-out: Curve area AUC0-∞; for half-life: read-out: Half-life period T½ (converted); for Cmax: read-out: Plasma concentration Cmax; for MRT: read-out: Residence time MRT
Procedure: SD rats were used as the test animals, and the compounds of Examples 12 and 17 were administrated intragastrically to the rats to determine the drug concentration in plasma at different points by LC/MS/MS method. The pharmacokinetic properties of the compounds of the present invention in rats were studied.
The compound of Example 12 (3.5 mg) was weighed, dissolved in 2.2 mL of ethanol, vortexed for 1 minute and sonicated for 1 minute, after that, dissolved in 3.3 mL of PEG400, vortexed for 1 minute and sonicated for 1 minute, and then added with 5.5 mL of deionized water, vortexed for 1 minute. The final concentration of the solution was 0.3 mg/mL, and it was a colorless clear liquid (the pH of the final solution was about 7).
The compound of Example 17 (7.12 mg) was weighed and 7.12 mL of 0.5% sodium carboxymethylcellulose (CMC-Na) (0.5% Tween-20, 0.9% BeOH) was added, vortexed for 3 minutes until a homogeneous suspension was formed;
6 healthy adult SD male rats, after an overnight fast, were administrated intragastrically at the dosage of 3 mg/kg and 5 mg/kg, respectively.
Blood samples were taken from laryngeal vein (0.15 mL), at pre administration and at 15 minutes, 30 minutes, 1 hour, 2 hours, 4 hours, 8 hours, 12 hours, 24 hours, 36 hours and 48 hours post administration, and the samples were stored in heparinized test tubes, and centrifuged for 10 minutes at 5500 r/min. The plasma was stored at −30° C., and the rats were fed 4 hours after administration.
20 μL of sample was taken, 400 μl of acetonitrile solution of IS (5 ng·mL^−1 verapamil and 50 ng·mL^−1 glibenclamide were contained) was added, The mixture was vortexed for 1 minute, and then centrifuged for 8 minutes at 13,000r/min. After that, 70 μL of supernatant was added with 70 μL of water and vortexed for 10 minutes, and an aliquot of 10 μL of the supernatant of the mixture was analyzed in a LC-MS/MS system.
The tested compounds were administrated intragastrically to determine the content of the tested compounds in plasma of rats at different time points by LC-MS/MS method.

[5] = test system: small cell lung cancer cells NCI-H1581; test: Tumor cell proliferation, CCK-8 kit; assay type: cell-based; conditions: Homo sapiens, 72 hours
[6] = test system: human gastric cancer cells SNU-16; test: Tumor cell proliferation, CCK-8 kit; assay type: cell-based; conditions: SNU-16 cells, 72 hours
[7] = Pharmacokinetic tests on mice, intragastric, plasma LC/MS/MS; assay type: in vivo; conditions: ICR mice, 100 mg/kg
Procedure: ICR mice were used as the test animals, and the compound of Example 1 was administrated intragastrically to mice to determine the drug concentration in plasma at different points by LC/MS/MS method. The pharmacokinetic properties of the compound of the present invention were studied in mice.
The compound of Example 1 (50.12 mg) was weighed, added with 5.012 mL of 0.5% sodium carboxymethylcellulose (CMC-Na) (0.5% Tween-20, 0.9% BeOH), vortexed for 3 minutes until a homogeneous suspension was formed;
9 healthy adult ICR mice, after an overnight fast, were administrated intragastrically at a dosage of 100 mg/kg, at a volume of […].
Blood samples were taken from orbital vein (0.08 mL) at pre administration and at 15 minutes, 30 minutes, 1 hour, 2 hours, 4 hours, 8 hours, 12 hours, 24 hours post administration. The samples were stored in heparinized test tubes and centrifuged for 10 minutes at 5500r/min, The plasma were stored at −30° C., and the mice were fed after 4 hours of administration.
10 μL of sample was taken, 100 μl of acetonitrile solution of IS (5 ng·mL^−1 verapamil and 50 ng·mL^−1 glibenclamide were contained) was added, the mixture was vortexed for 10 minutes and centrifuged for 18 minutes at 3,700r/min, After that, 40 μL of supernatant was added with 120 μL of water and vortexed for 10 minutes, and an aliquot of 10 μL of the supernatant of the mixture was analyzed in a LC-MS/MS system.
The tested compounds were administrated intragastrically to determine the content of the tested compounds in plasma of mice at different time points by LC-MS/MS method.

FGFR3 = FGFR3 (Homo sapiens (Human), UniProt P22607); test: FGFR kinase activity, HTRF KinEASE-TK (TF-FRET); assay type: biochemical; conditions: recombinant human FGFR3, ATP at Km
FGFR4 = FGFR4 (Homo sapiens (Human), UniProt P22455); conditions: read-out: IC50(nM) FGFR4; recombinant human FGFR4, ATP at Km
Sequence of FGFR4 (P22455 22-802): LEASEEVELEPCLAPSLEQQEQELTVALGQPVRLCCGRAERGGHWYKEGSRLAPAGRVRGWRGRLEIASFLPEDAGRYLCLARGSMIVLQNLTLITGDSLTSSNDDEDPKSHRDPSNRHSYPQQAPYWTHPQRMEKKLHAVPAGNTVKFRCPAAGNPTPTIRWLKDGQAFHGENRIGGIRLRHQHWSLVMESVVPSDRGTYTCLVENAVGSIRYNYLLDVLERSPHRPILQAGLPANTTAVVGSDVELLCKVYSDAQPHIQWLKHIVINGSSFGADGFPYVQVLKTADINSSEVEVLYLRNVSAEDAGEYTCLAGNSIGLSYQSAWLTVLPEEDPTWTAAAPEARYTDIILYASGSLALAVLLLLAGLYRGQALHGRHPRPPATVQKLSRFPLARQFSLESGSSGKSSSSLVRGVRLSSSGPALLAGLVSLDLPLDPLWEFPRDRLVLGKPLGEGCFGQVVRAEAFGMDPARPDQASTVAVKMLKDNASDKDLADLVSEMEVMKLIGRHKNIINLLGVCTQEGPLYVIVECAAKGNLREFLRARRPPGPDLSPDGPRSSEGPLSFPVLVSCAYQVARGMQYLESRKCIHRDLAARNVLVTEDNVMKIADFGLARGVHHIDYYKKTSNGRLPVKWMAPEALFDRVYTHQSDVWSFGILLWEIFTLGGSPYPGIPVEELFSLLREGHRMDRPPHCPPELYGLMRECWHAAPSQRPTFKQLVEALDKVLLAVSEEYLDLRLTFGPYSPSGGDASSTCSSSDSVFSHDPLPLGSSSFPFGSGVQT
Procedure: This assay used Cisbio's HTRF®KinEASE-TK tyrosine kinase kit (Cat. No. 62TK0PEB), through determining the degree of phosphorylation of the biotinylated polypeptide substrate, the determination was carried out by time-resolved fluorescence energy resonance transfer method (TF-FRET).
For detailed assay, please refer to the kit instructions, the experimental procedure was summarized as follows: the compound of the present invention was first dissolved in DMSO, the solution was subjected to gradient dilution with the buffer solution provided in the kit so that the range of the final concentration of the compound to be tested in the reaction system was 10 μM to 0.1 nM, the final concentration of DMSO was 0.1%. The concentration of the tested adenosine triphosphate (ATP) was the pre-determined Km value corresponding to the ATP of each FGFR subtype. […] Subsequently, an antiphosphorylated tyrosine antibody coupled with a compound containing europium-based element and streptavidin coupled with a modified allophycocyanin XL665 were added to the reaction and the mixture was incubated continuously for 1 hour at room temperature.

Sequence of FGFR3 (P22607 23-806): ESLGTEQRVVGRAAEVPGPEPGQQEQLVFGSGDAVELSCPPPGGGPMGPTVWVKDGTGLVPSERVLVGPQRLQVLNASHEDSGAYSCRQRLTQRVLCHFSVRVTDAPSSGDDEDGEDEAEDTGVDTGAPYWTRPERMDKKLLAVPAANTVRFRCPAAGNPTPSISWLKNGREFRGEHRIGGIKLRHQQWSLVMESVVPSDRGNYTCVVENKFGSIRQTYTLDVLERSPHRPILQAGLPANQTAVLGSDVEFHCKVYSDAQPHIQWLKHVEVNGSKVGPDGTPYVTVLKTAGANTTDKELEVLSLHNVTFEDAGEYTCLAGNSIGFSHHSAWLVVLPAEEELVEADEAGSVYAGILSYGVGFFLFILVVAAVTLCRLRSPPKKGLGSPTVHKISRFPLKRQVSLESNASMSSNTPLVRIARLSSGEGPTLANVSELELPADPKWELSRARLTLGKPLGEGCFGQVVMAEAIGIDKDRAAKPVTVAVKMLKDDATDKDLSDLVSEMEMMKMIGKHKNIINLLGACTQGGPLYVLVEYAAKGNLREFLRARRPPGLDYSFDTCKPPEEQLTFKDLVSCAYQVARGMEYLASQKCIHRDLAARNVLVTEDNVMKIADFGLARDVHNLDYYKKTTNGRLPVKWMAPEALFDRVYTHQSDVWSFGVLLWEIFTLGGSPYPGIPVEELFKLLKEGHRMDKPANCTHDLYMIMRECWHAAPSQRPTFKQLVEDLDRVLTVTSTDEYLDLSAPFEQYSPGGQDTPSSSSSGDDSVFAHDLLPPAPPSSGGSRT

Row | Compound | IC50 [1] [nM] | IC50 [2] [nM] | IC50 [3] [nM] | IC50 [5] [nM] | IC50 [6] [nM] | also measured
1 | N#Cc1ccc2cc(C(=O)c3cnn(-c4ccc5[nH]c(C6CC6)nc5c4)c3N)[nH]c2c1 [Example 17, 2-(5-Amino-1-(2-cyclopropyl-1H-benzo[d]imidazol-5-yl)-1H-pyrazole-4-carbonyl)-1H-indole-6-carbonitrile] | 9.8 | 129 | 106 | 61 | – | pharmacokinetic properties (in words) [4]: good pharmacokinetic properties; AUC(0-inf) ([4]; 5 mg/kg): 10300 ± 3490 ng·h/mL; half-life ([4]; 5 mg/kg): 6.6 ± 3.2 h; Cmax ([4]; 5 mg/kg): 1040 ± 271 ng/mL; MRT ([4]; 5 mg/kg): 9.4 ± 5.2 h
2 | CN1CC=C(c2ccc3cc(C(=O)c4cnn(-c5ccc6[nH]c(C7CC7)nc6c5)c4N)[nH]c3c2)CC1 [Example 14, (5-Amino-1-(2-cyclopropyl-1H-benzo[d]imidazol-5-yl)-1H-pyrazol-4-yl)(6-(1-methyl-1,2,3,6-tetrahydropyrid-4-yl)-1H-indol-2-yl)methanone] | 4.5 | 43 | – | 20 | 5.6 | –
3 | Nc1c(C(=O)c2cc3ccc(F)cc3[nH]2)cnn1-c1ccc2[nH]c(C3CC3)nc2c1 [Example 12, (5-Amino-1-(2-cyclopropyl-1H-benzo[d]imidazol-5-yl)-1H-pyrazol-4-yl)(6-fluoro-1H-indol-2-yl)methanone] | 1.1 | 150 | – | 78 | 5 | pharmacokinetic properties (in words) [4]: good pharmacokinetic properties; AUC(0-inf) ([4]; 3 mg/kg): 80400 ± 24600 ng·h/mL; half-life ([4]; 3 mg/kg): 5.38 ± 0.05 h; Cmax ([4]; 3 mg/kg): 5230 ± 1510 ng/mL; MRT ([4]; 3 mg/kg): 8.18 ± 0.19 h
4 | CCn1cc(-c2ccc3cc(C(=O)c4cnn(-c5ccc6[nH]c(C7CC7)nc6c5)c4N)[nH]c3c2)cn1 [Example 16, (5-Amino-1-(2-cyclopropyl-1H-benzo[d]imidazol-5-yl)-1H-pyrazol-4-yl)(6-(1-ethyl-1H-pyrazol-4-yl)-1H-indol-2-yl)methanone] | 11 | 56 | 56 | 40 | – | –
5 | Nc1c(C(=O)c2cc3cc(F)ccc3[nH]2)cnn1-c1ccc2[nH]c(C3CC3)nc2c1 [Example 11, (5-amino-1-(2-cyclopropyl-1H-benzo[d]imidazol-5-yl)-1H-pyrazol-4-yl)(5-fluoro-1H-indol-2-yl)methanone] | 15 | – | – | 119 | – | –
6 | Nc1c(C(=O)c2cc3ccccc3[nH]2)cnn1-c1ccc2[nH]c(C3CC3)nc2c1 [Example 1, (5-amino-1-(2-cyclopropyl-1H-benzo[d]imidazol-5-yl)-1H-pyrazol-4-yl)(1H-indol-2-yl)methanone] | 9 | 89 | 11 | 45 | 4 | F % (oral availability) [7]: 63%; pharmacokinetic properties (in words) [7]: good pharmacokinetic properties; AUC(0-t) ([7]; mouse, plasma, po, read-out: Curve area AUC0-t): 150000 ng·h/mL; Cmax ([7]; mouse, plasma, po, read-out: Plasma concentration Cmax): 17400 ng/mL
7 | COC(=O)c1nc2cc(-n3ncc(C(=O)c4cc5ccccc5[nH]4)c3N)ccc2[nH]1 [Example 7, Methyl 5-(5-amino-4-(1H-indole-2-carbonyl)-1H-pyrazol-1-yl)-1H-benzo[d]imidazole-2-carboxylate] | – | – | – | – | – | IC50 (FGFR3): > 100 nM; IC50 (FGFR4): > 10000 nM
